Assay results published in patent US4550179A, “N-(1-Allyl-2-pyrrolidinyl-methyl) 2-methoxy-4-amino-5-methylsulfamoyl benzamide” (Societe d'Etudes Scientifiques et Industrielles de l'Ile-de …, priority 1980, dated 1985).

Legend:
arterial pressure = arterial pressure in dog anaesthetised with chloralose; type: in vivo
Excerpt: The effects of the benzamide on the cardiovascular system were studied in a dog anaesthetised with chloralose, with the following results:
Variations in arterial pressure
(mg/kg/I.V.) relative to initial pressure

rat = experiment: stereotypic movements of the rat caused by dopaminergic agonists (apomorphine or amphetamine); type: in vivo
isolated ileum = experiment: anticholinergic action in vitro on isolated ileum; details: isolated ileum of guinea pig
histamine = experiment: interaction with histamine, arterial pressure of anaesthetised dog; type: in vivo
Excerpt: Finally, researchers looked for interaction between the benzamide according to the invention and histamine, in the arterial pressure of an anaesthetised dog and the isolated ileum of a guinea pig.

[1] = acute toxicity (lethal dose 50); details: in vivo, male mouse

## C=CCN1CCCC1CNC(=O)c1cc(S(=O)(=O)NC)c(N)cc1OC (stereo not drawn) [Benzamide according to the invention, N-(1-allyl-2-pyrrolidinyl-methyl)2-methoxy-4-amino-5-methylsulfamoyl benzamide]
Arterial pressure; cumulative dose 0.5 mg/kg I.V.
  Variations in arterial pressure relative to initial pressure: -21%
Arterial pressure; cumulative dose 1 mg/kg I.V.
  Variations in arterial pressure relative to initial pressure: -32%
Arterial pressure; cumulative dose 2 mg/kg I.V.
  Variations in arterial pressure relative to initial pressure: -36%
Arterial pressure; cumulative dose 4 mg/kg I.V.
  Variations in arterial pressure relative to initial pressure: -48%
Arterial pressure; cumulative dose 8 mg/kg I.V.
  Variations in arterial pressure relative to initial pressure: -54%
Arterial pressure; cumulative dose 16 mg/kg I.V.
  Variations in arterial pressure relative to initial pressure: -59%
Arterial pressure; cumulative dose 32 mg/kg I.V.
  Variations in arterial pressure relative to initial pressure: -58%
Arterial pressure; dog anaesthetised with chloralose
  arterial pressure: drop in arterial pressure proportional to the dose administered
rat
  counteraction of stereotypic movements: does not counteract the stereotypic movements of the rat
Isolated ileum
  anticholinergic action: no anticholinergic action
histamine
  anti-histamine properties: No anti-histamine properties were revealed
[1]; ip, intraperitoneal (basis)
  LD50: 184 mg/kg
[1]; po, per os (basis)
  LD50: 3600 mg/kg
[1]; sc, subcutaneous (basis)
  LD50: 204 mg/kg
[1]; intravenous (basis)
  LD50: 44 mg/kg
